Assay results: the NIST ThermoML archive (doi:10.1016/j.jct.2019.02.031)
± gives the expanded uncertainty stated by the source.

Key:
[1] = 101 kPa, Liquid; for viscosity: Falling or rolling sphere viscometry; for mass density: Vibrating tube method
[2] = molar heat capacity at constant pressure; details: 101.33 kPa, Liquid, DSC
[3] = xn = mol fraction of the nth substance listed; details: 101 kPa, Liquid, x2 = 0; for viscosity: Falling or rolling sphere viscometry; for mass density: Vibrating tube method

Cn1cc[n+](CCC[N+](C)(C)C)c1.N#C[N-]C#N.N#C[N-]C#N
Details	mass density, [1] [kg/m3]	molar heat capacity at constant pressure, [2] [J/K/mol]	viscosity, [1] [mPa·s]
283.15 K	1162.82 ± 2	–	4998 ± 870
288.15 K	1159.76 ± 2	–	2736 ± 430
293.15 K	1156.74 ± 2	–	1608 ± 240
298.15 K	1153.73 ± 2	519.44 ± 85	1007 ± 140
303.15 K	1150.76 ± 2	521.65 ± 85	662.9 ± 85
308.15 K	1147.8 ± 2	523.85 ± 86	455.4 ± 55
313.15 K	1144.89 ± 2	526.06 ± 86	324.6 ± 37
318.15 K	1142 ± 2	527.95 ± 86	239.7 ± 27
323.15 K	1139.11 ± 2	530.48 ± 87	181.2 ± 20
328.15 K	1136.24 ± 2	532.69 ± 87	141.1 ± 15
333.15 K	1133.4 ± 2	535.21 ± 88	111.9 ± 12
338.15 K	–	537.1 ± 88	–
343.15 K	–	539.62 ± 88	–
348.15 K	–	541.83 ± 89	–
353.15 K	–	543.72 ± 89	–
358.15 K	–	546.25 ± 90	–
363.15 K	–	548.14 ± 90	–
368.15 K	–	550.66 ± 90	–
373.15 K	–	553.19 ± 91	–
378.15 K	–	555.39 ± 91	–
383.15 K	–	557.92 ± 91	–
388.15 K	–	560.12 ± 92	–
393.15 K	–	562.33 ± 92	–
398.15 K	–	564.85 ± 92	–
403.15 K	–	567.06 ± 93	–
408.15 K	–	569.27 ± 93	–
413.15 K	–	571.79 ± 94	–
418.15 K	–	574.32 ± 94	–
423.15 K	–	576.21 ± 94	–

CC(C)O [propan-2-ol]
[1]
Details	mass density [kg/m3]	viscosity [mPa·s]
283.15 K	793.67 ± 2	3.352 ± 0.34
288.15 K	789.58 ± 2	2.843 ± 0.28
293.15 K	785.44 ± 2	2.423 ± 0.24
298.15 K	781.24 ± 2	2.08 ± 0.21
303.15 K	776.97 ± 2	1.792 ± 0.18
308.15 K	772.62 ± 2	1.554 ± 0.16
313.15 K	768.18 ± 2	1.352 ± 0.14
318.15 K	763.65 ± 2	1.183 ± 0.12
323.15 K	759.01 ± 2	1.039 ± 0.1
328.15 K	754.26 ± 2	0.918 ± 0.092
333.15 K	749.39 ± 2	0.813 ± 0.082

CC(C)O [propan-2-ol] + Cn1cc[n+](CCC[N+](C)(C)C)c1.N#C[N-]C#N.N#C[N-]C#N
[3]
Details	mass density [kg/m3]	viscosity [mPa·s]
283.15 K	793.67 ± 2	3.352 ± 0.34
288.15 K	789.58 ± 2	2.843 ± 0.28
293.15 K	785.44 ± 2	2.423 ± 0.24
298.15 K	781.24 ± 2	2.08 ± 0.21
303.15 K	776.97 ± 2	1.792 ± 0.18
308.15 K	772.62 ± 2	1.554 ± 0.16
313.15 K	768.18 ± 2	1.352 ± 0.14
318.15 K	763.65 ± 2	1.183 ± 0.12
323.15 K	759.01 ± 2	1.039 ± 0.1
328.15 K	754.26 ± 2	0.918 ± 0.092
333.15 K	749.39 ± 2	0.813 ± 0.082
